Columns and labels:
[1] = tested on: male Swiss Webster mice; experiment: Locomotor activity assay; format: in vivo, mouse; conditions: s.c., 30 min session; for average speed by time versus vehicle: Figure 6F–H
Procedure: This hypolocomotion could result in false positives in assays of evoked antinociception such as WWTI.[115] Thus, a locomotor activity assay was utilized to assess this end point in accordance with previous studies.[28] In brief, the day prior to testing, mice were placed in the open field chamber for acclimation. On the test day, they were injected with compounds 21, 23, NLF, or vehicle and immediately placed back into the open field chamber. Photo beam breaks then recorded the mouse’s locomotion over a 30 min test period.
Six open field activity chambers (Med Associates, St. Albans, VT) were used in the locomotor activity study. Each chamber is located inside a sound-attenuating cubicle (Med Associates) and is equipped with a ventilation system. The interior of the chamber consists of a 27 × 27 cm plexiglass enclosure wired with photobeam cells and connected to a computer console that monitors the activity of the animal.
The day before the experiment, mice were acclimated to the activity chambers for a period of 30 min. On the day of the experiment, mice were administered vehicle or test compound s.c., placed into the activity chambers immediately and activity was monitored and recorded for a period of 30 min.
The primary dependent measures are total (1) distance traveled (cm), (2) ambulatory counts, (3) vertical counts, and (4) average speed (cm/s) within the 30 min session. Data are shown as mean ± SEM. Data were compared using one-way or two-way ANOVA as appropriate and a significant ANOVA was followed by a Dunnet’s post hoc test as appropriate. Statistical significance was defined as p < 0.05.

[2] = molecular target: hERG (Kv11.1) (Homo sapiens, UniProt Q12809); experiment: Automated patch-clamp hERG inhibition assay in CHO-hERG cells
[3] = molecular target: hERG (Homo sapiens, UniProt Q12809); experiment: as above
Chain of hERG (Q12809 whole entry): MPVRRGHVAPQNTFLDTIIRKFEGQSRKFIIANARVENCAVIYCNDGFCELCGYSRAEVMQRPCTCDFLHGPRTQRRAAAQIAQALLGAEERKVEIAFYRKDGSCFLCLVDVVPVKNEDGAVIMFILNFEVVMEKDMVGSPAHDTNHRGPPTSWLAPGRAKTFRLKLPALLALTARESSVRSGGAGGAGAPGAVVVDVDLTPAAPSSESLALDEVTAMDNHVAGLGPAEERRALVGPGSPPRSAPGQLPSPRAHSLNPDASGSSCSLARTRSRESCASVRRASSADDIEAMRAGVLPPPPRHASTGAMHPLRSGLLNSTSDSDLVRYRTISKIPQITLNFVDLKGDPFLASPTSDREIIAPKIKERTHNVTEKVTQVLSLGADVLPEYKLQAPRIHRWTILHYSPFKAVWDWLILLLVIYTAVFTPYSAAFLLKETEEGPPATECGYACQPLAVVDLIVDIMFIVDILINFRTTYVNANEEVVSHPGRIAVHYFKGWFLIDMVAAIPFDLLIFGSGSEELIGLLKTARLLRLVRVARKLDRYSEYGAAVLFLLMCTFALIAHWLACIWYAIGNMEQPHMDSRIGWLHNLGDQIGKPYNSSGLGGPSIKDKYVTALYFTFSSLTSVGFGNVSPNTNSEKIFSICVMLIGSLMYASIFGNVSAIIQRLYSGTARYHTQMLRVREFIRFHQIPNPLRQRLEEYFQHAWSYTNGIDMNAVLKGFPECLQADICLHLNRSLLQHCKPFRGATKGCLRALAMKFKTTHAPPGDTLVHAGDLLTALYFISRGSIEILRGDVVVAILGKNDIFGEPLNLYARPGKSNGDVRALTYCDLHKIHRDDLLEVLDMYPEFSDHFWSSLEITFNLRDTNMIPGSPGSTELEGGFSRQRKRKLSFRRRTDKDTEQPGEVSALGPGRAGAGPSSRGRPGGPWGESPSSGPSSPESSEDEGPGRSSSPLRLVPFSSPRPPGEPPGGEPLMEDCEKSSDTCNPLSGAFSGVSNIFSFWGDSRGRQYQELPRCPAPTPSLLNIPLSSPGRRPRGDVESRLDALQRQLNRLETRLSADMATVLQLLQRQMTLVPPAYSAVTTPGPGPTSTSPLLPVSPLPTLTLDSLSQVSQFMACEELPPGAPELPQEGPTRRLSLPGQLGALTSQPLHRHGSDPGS

Chain of hERG (Kv11.1) (Q12809 whole entry): as above

Structure (SMILES)	locomotor activity [1]	average speed by time versus vehicle [1]	IC50 [2] [µM]	IC50 [3] [µM]
CN(C(=O)/C=C/c1ccco1)[C@H]1CC[C@@]2(O)[C@H]3Cc4ccc(O)c5c4[C@@]2(CCN3CC2CC2)[C@H]1O5.Cl [Compound 21, 17-Cyclopropylmethyl-3,14β-dihydroxy-4,5α-epoxy-6α-[(2E)-3′-(furan-2″-yl)-N-methylprop-2-enamido]morphinan Hydrochloride]	significant decrease in vertical counts at the largest dose tested	did not result in average speeds significantly different from vehicle at any time point	2.51	
CN(C(=O)/C=C/c1ccco1)[C@@H]1CC[C@@]2(O)[C@H]3Cc4ccc(O)c5c4[C@@]2(CCN3CC2CC2)[C@H]1O5.Cl [Compound 23, 17-Cyclopropylmethyl-3,14β-dihydroxy-4,5α-epoxy-6β-[(2E)-3′-(furan-2″-yl)-N-methylprop-2-enamido]morphinan Hydrochloride]	dose-dependent decrease in locomotor activity across all end points	significantly different from vehicle		1.09

— article PMC11181328 (Journal of Medicinal Chemistry, 2024)
